≈ marks a conversion by molar mass, not a printed value. Calls of active or inactive are those of the source. The rule behind the calls is not given here.
Experiments:
[1] = tested on: 4T1; test: Antitumor activity against mouse 4T1 cells implanted in Balb/c mouse assessed as reduction in tumor weight at 80 mg/kg, IT administered once every 4 days in presence of olive oil; format: functional, organism-based
[2] = tested on: MDA-MB-231; test: Antiproliferative activity against human MDA-MB-231 cells assessed as inhibition of cell proliferation incubated for 48 hrs by CCK-8 assay; format: functional, cell-based; conditions: MDA-MB-231, 48 h
[3] = tested on: 4T1; test: Antitumor activity against mouse 4T1 cells implanted in Balb/c mouse assessed as appearance of vacuolation at 200 mg/kg, TOP administration once every 2 days for 14 days; format: functional, organism-based; conditions: time 14.0 day
[4] = Toxicity in female Balb/c mouse implanted with mouse 4T1 cells assessed as change in spleen at 25 to 35 mg/kg, ip administered once every 2 days for 14 days; format: organism-based; conditions: in vivo, 48 h, dose 25-35 mg/kg, time 2 day
[5] = tested on: 4T1; test: Antitumor activity against mouse 4T1 cells implanted in Balb/c mouse assessed as lighter tumor at 200 mg/kg, TOP administration once every 2 days for 14 days; format: functional, organism-based; conditions: time 14.0 day
[6] = tested on: 4T1; test: Antitumor activity against mouse 4T1 cells implanted in Balb/c mouse assessed as damage in endoplasmic reticulum at 80 mg/kg, IT administered once every 4 days for 14 days in presence of olive oil by TEM analysis; format: functional, organism-based; conditions: time 14.0 day
[7] = Toxicity in female Balb/c mouse implanted with mouse 4T1 cells assessed as mortality at 80 mg/kg, IT administered once every 4 days in presence of olive oil; format: organism-based; conditions: in vivo, other, 96 h
[8] = tested on: 4T1; test: Antitumor activity against mouse 4T1 cells implanted in Balb/c mouse assessed as tumor inhibition rate at 200 mg/kg, TOP administration once every 2 days for 14 days relative to control; format: functional; design: scale not given: the % may be the effect or the level left; conditions: time 14 day
[9] = target: Phosphatidylinositol 4,5-bisphosphate 3-kinase catalytic subunit alpha (Homo sapiens) (UniProt P42336); test: Binding affinity to P13Kalpha in human MDA-MB-231 cells assessed as thermal stabilization at 6.4 uM incubated for 2 hrs by CETSA based Western blotting analysis
Chain of Phosphatidylinositol 4,5-bisphosphate 3-kinase catalytic subunit alpha (Homo sapiens) (P42336 whole entry, looked up): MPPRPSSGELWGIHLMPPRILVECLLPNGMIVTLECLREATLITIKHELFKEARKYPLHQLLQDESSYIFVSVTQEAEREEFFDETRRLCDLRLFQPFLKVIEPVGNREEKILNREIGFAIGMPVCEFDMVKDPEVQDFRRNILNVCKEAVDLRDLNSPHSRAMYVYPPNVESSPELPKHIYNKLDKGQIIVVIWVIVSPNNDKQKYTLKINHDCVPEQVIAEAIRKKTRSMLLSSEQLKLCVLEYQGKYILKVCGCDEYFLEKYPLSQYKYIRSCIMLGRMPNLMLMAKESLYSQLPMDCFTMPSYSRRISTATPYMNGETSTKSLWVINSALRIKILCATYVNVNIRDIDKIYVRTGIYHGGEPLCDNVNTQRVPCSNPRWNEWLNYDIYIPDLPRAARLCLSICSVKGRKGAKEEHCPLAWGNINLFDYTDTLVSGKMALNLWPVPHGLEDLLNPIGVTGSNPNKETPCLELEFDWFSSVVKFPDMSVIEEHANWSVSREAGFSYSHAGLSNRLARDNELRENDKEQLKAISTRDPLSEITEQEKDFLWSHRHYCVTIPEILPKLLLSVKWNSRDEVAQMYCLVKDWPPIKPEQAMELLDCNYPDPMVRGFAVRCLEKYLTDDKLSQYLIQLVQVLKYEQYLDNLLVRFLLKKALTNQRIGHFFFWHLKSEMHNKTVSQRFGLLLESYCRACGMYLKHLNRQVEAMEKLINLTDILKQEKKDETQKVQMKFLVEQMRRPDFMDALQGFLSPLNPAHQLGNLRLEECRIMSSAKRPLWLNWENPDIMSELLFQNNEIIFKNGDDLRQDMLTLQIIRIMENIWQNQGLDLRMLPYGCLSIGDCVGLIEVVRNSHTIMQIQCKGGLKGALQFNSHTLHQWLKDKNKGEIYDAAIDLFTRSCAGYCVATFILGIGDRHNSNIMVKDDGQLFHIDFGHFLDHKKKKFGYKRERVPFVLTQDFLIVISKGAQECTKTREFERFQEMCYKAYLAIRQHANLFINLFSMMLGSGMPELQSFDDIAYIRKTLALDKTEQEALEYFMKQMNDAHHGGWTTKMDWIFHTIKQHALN

[10] = tested on: 4T1; test: Antitumor activity against mouse 4T1 cells implanted in Balb/c mouse assessed as appearance of irregular necrotic foci at 25 mg/kg, ip administered once every 2 days for 14 days; format: functional, organism-based; conditions: time 14.0 day
[11] = Toxicity in Kunming mouse assessed as infiltration of chronic inflammatory cells at 240 to 469 mg/kg, ip administered for 14 days by H and E staining based analysis; format: organism-based; conditions: in vivo, 336 h, dose 240-469 mg/kg, time 14 day
[12] = Toxicity in female Balb/c mouse implanted with mouse 4T1 cells assessed as abnormalities in lungs at 35 mg/kg, ip administered once every 2 days for 14 days; format: organism-based; conditions: in vivo, 336 h, time 14 day
[13] = tested on: NIH3T3; test: Cytotoxicity against mouse 3T3 cells; format: toxicity, cell-based
[14] = tested on: HUVEC; test: Cytotoxicity against human HUVEC cells; format: toxicity, cell-based
[15] = tested on: MDA-MB-231; test: Induction of cell cycle arrest in human MDA-MB-231 cells assessed as accumulation of cells at G0/G1 phase at 1 uM incubated for 24 hrs by PI staining based flow cytometric analysis (reference value: 57.31%); format: functional
[16] = tested on: 4T1; test: Antitumor activity against mouse 4T1 cells implanted in Balb/c mouse assessed as reduction in tumor volume at 80 mg/kg, IT administered once every 4 days in presence of olive oil; format: functional, organism-based
[17] = Toxicity in Kunming mouse assessed as lethal dose administered intraperitoneally for 14 days; conditions: in vivo, route ip, time 14 day
[18] = tested on: A549; test: Antiproliferative activity against human A549 cells assessed as inhibition of cell proliferation incubated for 48 hrs by CCK-8 assay; format: functional, cell-based; conditions: A549, 48 h
[19] = tested on: 4T1; test: Antitumor activity against mouse 4T1 cells implanted in Balb/c mouse assessed as appearance of chromatin aggregation at 80 mg/kg, IT administered once every 4 days for 14 days in presence of olive oil by TEM analysis; format: functional, organism-based; conditions: time 14.0 day
[20] = tested on: MDA-MB-231; test: Induction of apoptosis in human MDA-MB-231 cells assessed as late apoptotic cells at 1 uM incubated for 24 hrs by Annexin-V/PI staining based flow cytometric analysis (reference value: 3.24%); format: functional
[21] = tested on: 4T1; test: Antitumor activity against mouse 4T1 cells implanted in Balb/c mouse assessed as appearance of chromatin aggregation at 25 to 35 mg/kg, ip administered once every 2 days for 14 days by TEM analysis; format: functional, organism-based; conditions: dose 25-35 mg/kg, time 14.0 day
[22] = tested on: 4T1; test: Antitumor activity against mouse 4T1 cells implanted in Balb/c mouse assessed as tumor suppression rate at 35 mg/kg, ip administered once every 2 days for 14 days relative to control; format: functional
[23] = tested on: 4T1; test: Antitumor activity against mouse 4T1 cells implanted in Balb/c mouse assessed as reduction in tumor volume at 25 to 35 mg/kg, ip administered once every 2 days for 14 days; format: functional, organism-based; conditions: dose 25-35 mg/kg, time 14.0 day
[24] = tested on: 4T1; test: Antitumor activity against mouse 4T1 cells implanted in Balb/c mouse assessed as damage in endoplasmic reticulum at 25 to 35 mg/kg, ip administered once every 2 days for 14 days by TEM analysis; format: functional, organism-based; conditions: dose 25-35 mg/kg, time 14.0 day
[25] = tested on: 4T1; test: Antitumor activity against mouse 4T1 cells implanted in Balb/c mouse assessed as appearance of mitochondrial swelling at 25 to 35 mg/kg, ip administered once every 2 days for 14 days by TEM analysis; format: functional, organism-based; conditions: dose 25-35 mg/kg, time 14.0 day
[26] = Solubility of compound in water; format: physicochemical
[27] = tested on: MDA-MB-231; test: Induction of apoptosis in human MDA-MB-231 cells assessed as increase in green fluorescence at 1 uM incubated for 24 hrs in presence of doxorubicin by fluorescence microscopic analysis; format: functional, cell-based
[28] = tested on: 4T1; test: Antitumor activity against mouse 4T1 cells implanted in Balb/c mouse assessed as appearance of central tumor necrosis at 35 mg/kg, ip administered once every 2 days for 14 days relative to control; format: functional; conditions: time 14 day
[29] = Toxicity in female Balb/c mouse implanted with mouse 4T1 cells assessed as behavioural changes at 25 to 35 mg/kg, ip administered once every 2 days; format: organism-based; conditions: in vivo, 48 h, dose 25-35 mg/kg, time 2 day
[30] = tested on: 4T1; test: Antitumor activity against mouse 4T1 cells implanted in Balb/c mouse assessed as tumor inhibition rate at 80 mg/kg, IT administered once every 4 days in presence of olive oil relative to control; format: functional; design: scale not given: the % may be the effect or the level left
[31] = Toxicity in female Balb/c mouse implanted with mouse 4T1 cells assessed as mortality at 25 to 35 mg/kg, ip administered once every 2 days; format: organism-based; conditions: in vivo, 48 h, dose 25-35 mg/kg, time 2 day
[32] = tested on: 4T1; test: Antitumor activity against mouse 4T1 cells implanted in Balb/c mouse assessed as appearance of nuclear membrane disruption at 80 mg/kg, IT administered once every 4 days for 14 days in presence of olive oil by TEM analysis; format: functional, organism-based; conditions: time 14.0 day
[33] = tested on: HepG2; test: Antiproliferative activity against human HepG2 cells assessed as inhibition of cell proliferation incubated for 48 hrs by CCK-8 assay; format: functional, cell-based; conditions: HepG2, 48 h
[34] = Toxicity in Kunming mouse assessed as change in kidney lesions at 240 to 469 mg/kg, ip administered for 14 days by H and E staining based analysis; format: organism-based; conditions: in vivo, 336 h, dose 240-469 mg/kg, time 14 day
[35] = Cardiotoxicity in Kunming mouse assessed as change in LDH level administered intraperitoneally for 14 days (reference value: 1253 +/- 67.28 U); format: toxicity; conditions: in vivo, ip, 336 h, time 14 day
[36] = tested on: MDA-MB-231; test: Induction of apoptosis in human MDA-MB-231 cells assessed as necrotic cells at 1 uM incubated for 24 hrs by Annexin-V/PI staining based flow cytometric analysis (reference value: 0.71%); format: functional

With `Cc1[nH]c2ccccc2c1C1=C(F)C(=O)C(F)=C(N2CCOCC2)C1=O` the Activity [1] was “Active”, the IC50 [2] was 3.2 µM and the Activity [3] was “Active”. For the same molecule, the Activity [4] was “Non-toxic”, the Activity [5] was “Active” and the Activity [6] was “Active”. The Activity [7] was “Non-toxic”, the Activity [8] was 38.9% and the Activity [9] was “Active”. The Activity [10] was “Active”, the Activity [11] was “Toxic” and the Activity [12] was “Non-toxic”. The Activity [13] was “Toxic”, the Activity [14] was “Toxic” and the Activity [15] was 32.15%. For the same molecule, the Activity [16] was “Active”, the LD50 at 336 h [17] was 385 mg/kg and the IC50 [18] was 5.21 µM. The Activity [19] was “Active”, the Activity [20] was 26.4% and the Activity [21] was “Active”. For the same molecule, the Activity [22] was 50%, the Activity [23] was “Active” and the Activity [24] was “Active”. The Activity [25] was “Active”, the solubility [26] was 28 µg/mL (≈ 78.1 µM) and the Activity [27] was “Active; Compound Showed More Effect Than Mitoxantrone Treated Group”. For the same molecule, the Activity [28] was 100%, the Activity [29] was “Non-toxic” and the Activity [30] was 41.9%. For the same molecule, the Activity [31] was “Non-toxic”, the Activity [32] was “Active” and the IC50 [33] was 3.94 µM. The Activity [34] was “Non-toxic”, the Activity [35] was 1060 U/L and the Activity [36] was 3.93%.
